Consider 2 compounds from US9937198B2, “Multi-functional composition and preparation method and application thereof” (Suzhou Sciscape Bio-Pharmaceutical Technology Co., Ltd., priority 2013, dated 2018).

Test [1] concerns normal mice. The experiment in a line: Defecation quantity and body weight changes in normal mice (sliming). It is filed as in vivo. How it is done: (§1) Male ICR mice, 8 weeks old and 20±2 g in body weight, were purchased from Beijing HFK Bioscience Co., Ltd.
(§2) The solutions of Compositions 1 to 7 prepared in this example were used.
After the mice were fed normally for 3 days, they were given no food but water for 4 h. By body weight, they were randomly divided into 11 groups, i.e., a blank control group, administration groups 1 to 7 and negative control groups 1 to 3. The mice in administration groups 1 to 7 were intragastrically administered with the solutions of Compositions 1 to 7 respectively at a dose of 13.3 mL/kg body weight. On the other hand, the mice in the blank control group were intragastrically given sterile water for medical use at a dose of 13.3 mL/kg body weight. Further, the mice in negative control groups 1 to 3 were intragastrically given the solution of trehalose (0.15 g/mL), the solution of validamycin (0.3 mg/mL) and the solution of algal polysaccharides (0.15 g/mL) respectively at a dose of 13.3 mL/kg body weight. At 20 to 30 min post administration, mice were allowed to eat freely and the defecation quantity in the mice from each group before and after administration (average feces quantity of the mice in each group), the percentages of defecation quantities before and after administration based on the total defecation quantities throughout the experiment and the body weight were recorded.

The subject of the next test is healthy volunteers. The experiment in a line: Effect on blood glucose level in normal people. Conditions: for effect on blood glucose level in normal people / Blood glucose level after administration: 200 mL oral; for Blood glucose level after administration / Blood glucose level before administration: individual healthy volunteers; for Blood glucose level before administration: fasting baseline. The class given is in vivo, human. How it is done:
Six healthy volunteers were fasted overnight and then were measured for fasting blood glucose. Thereafter, they were orally administered with 200 mL of the solution of Composition 1, or 200 mL of the solution of trehalose (0.15 g/mL), or 200 mL of the solution of validamycin (0.3 mg/mL), or 200 mL of distilled water, as stated in Table 3.2. The blood glucose level in every volunteer was tested before administration and 30 min, 60 min and 120 min post administration.

Test [2] relates to normal mice. The experiment in a line: Sleep in normal mice with subdissociative sodium pentobarbital. It is filed as in vivo. The following applies: 13.3 mL/kg intragastric; sodium pentobarbital 15 mg/kg i.p. 20 to 30 min later. How it is done: as §1, §2
After the mice were fed normally for 3 days, they were given no food but water for 18 to 24 h. By body weight, the mice were randomly divided into 11 groups, i.e., a blank control group, administration groups 1 to 7 and negative control groups 1 to 3. The mice in administration groups 1 to 7 were intragastrically administered with the solutions of Compositions 1 to 7 at a dose of 13.3 mL/kg body weight while the mice in the blank control group were intragastrically given sterile water for medical use at a dose of 13.3 mL/kg body weight. The mice in negative control groups 1 to 3 were intragastrically given the solution of trehalose (0.15 g/mL), the solution of validamycin (0.3 mg/mL) and the solution of algal polysaccharides (0.15 g/mL) at a dose of 13.3 mL/kg body weight respectively. Twenty to 30 min post administration, all mice were intraperitoneally injected with sodium pentobarbital at a subdissociative dose (15 mg/kg). The time when the righting reflex disappeared and sleep duration of the mice were recorded.

Another test deals with ovariectomized rats. The experiment in a line: Osteoporosis amelioration in ovariectomized rats. The class given is in vivo. The following applies: femur, 13.3 mL/kg once a day for 30 days.
Text: Female SD rats, 250 g to 280 g in body weight, were purchased from Shanghai Sippr-BK Lab Animal Co., Ltd.
as §2
After receiving ovariectomy, rats were fed normally for one week. By body weight, the rats were randomly divided into 11 groups, i.e., a blank control group, administration groups 1 to 7 and negative control groups 1 to 3. The rats in administration groups 1 to 7 were intragastrically administered with the solutions of Compositions 1 to 7 respectively at a dose of 13.3 mL/kg body weight while the rats in the blank control group were intragastrically given sterile water for medical use at a dose of 13.3 mL/kg body weight. The rats in negative control groups 1 to 3 were intragastrically given the solution of trehalose (0.15 g/mL), the solution of validamycin (0.3 mg/mL) and the solution of algal polysaccharides (0.15 g/mL) at a dose of 13.3 mL/kg body weight respectively. Administration was conducted once a day and lasted for 30 days. Normal rats were arranged in a normal group and fed normally all the time. Twenty to 30 min post last administration, all rats were killed by cervical vertebrae dislocation, and their femurs were taken out. Then, the bone density and mineral content in the femur were determined.

Test [3] relates to normal mice. The experiment in a line: Acetic acid writhing (pain) in normal mice. The class given is in vivo. The following applies: for Time of initial writhing: 13.3 mL/kg intragastric, 0.6% acetic acid i.p. 20 min later; for Pain inhibition ratio: relative to number of writhings in blank control group; for Number of writhings: within 30 min after acetic acid injection.
Text: as §1, §2
After mice were normally fed for 3 days, they were randomly divided into 11 groups depending on body weight, i.e., a blank control group, administration groups 1 to 7 and negative control groups 1 to 3, by body weight. The mice in administration groups 1 to 7 were intragastrically given the solutions of Compositions 1 to 7 respectively at a dose of 13.3 mL/kg body weight while the mice in the blank control group were intragastrically given sterile water for medical use at a dose of 13.3 mL/kg body weight. The mice in negative control groups 1 to 3 were intragastrically given the solution of trehalose (0.15 g/mL), the solution of validamycin (0.3 mg/mL) and the solution of algal polysaccharides (0.15 g/mL) at a dose of 13.3 mL/kg body weight respectively. Twenty minutes after the administration, the mice were intraperitoneally administered with 0.2 ml of solution of acetic acid (0.6%). Then, the number of writhing and time when initial writhing occurred in mice were observed within 30 min after injection of acetic acid solution and the pain inhibition ratio (pain inhibition ratio=(number of writhings in the blank control group—number of writhings in the administration group)/number of writhings in the blank control group) was calculated.

Where [4] appears, read: after administration, 13.3 mL/kg intragastric.

Values joined by “and” are separate entries in the source; they are usually repeats but may differ in a detail not shown here. Equal entries are not always repeated.

For the compound `OCC1=C[C@H](N[C@H]2C[C@H](CO)[C@@H](O[C@@H]3O[C@H](CO)[C@@H](O)[C@H](O)[C@H]3O)[C@H](O)[C@H]2O)[C@H](O)[C@@H](O)[C@@H]1O` [validamycin], in the test on normal mice [1] (setting [4]), the Body weight is 19.45 g, the “Percentage of defecation quantity in each stage based the total defecation quantity” value (“Percentage of defecation quantity” for short) is recorded as 35.26% and the defecation quantity was determined as 0.67 ± 0.05 g. For the same compound, in the test with normal mice [1] (before administration), the Body weight is 20.12 g, the “Percentage of defecation quantity” value stood at 64.74% and the defecation quantity is 1.23 ± 0.04 g. The “effect on blood glucose level in normal people” value in the test with healthy volunteers is “had not effect on the blood glucose level”. Further, in the test with healthy volunteers (30 min, listed as Solution of validamycin), the “Blood glucose level after administration” value is 6.3 mmol/L and 6.7 mmol/L. Also, the “Blood glucose level after administration” value in the test on healthy volunteers (60 min, listed as Solution of validamycin) is 6.2 mmol/L and 6.6 mmol/L. Moreover, the “Blood glucose level after administration” value with healthy volunteers (120 min, listed as Solution of validamycin) was 5.9 mmol/L and 5.3 mmol/L. Besides, the “Blood glucose level before administration” value in the test on healthy volunteers (listed as Solution of validamycin) is 6.0 mmol/L and 5.3 mmol/L. In the test with normal mice [2], the Sleep duration was 29.87 ± 1.58 min and the “Time when righting reflex disappeared” value was determined as 3.11 ± 0.21 min. Also, in the test with ovariectomized rats, the Bone density turned out to be 0.1063 ± 0.0222 g/cm^2 and the Mineral content is 0.1212 ± 0.0311 g/cm. In addition, in the test with normal mice [3], the “Time of initial writhing” value was determined as 3.6 ± 1.6 min, the Pain inhibition ratio came out at 0.0% and the Number of writhings is on record as 51.9 ± 2.1.

Consider `OC[C@H]1O[C@H](O[C@H]2O[C@H](CO)[C@@H](O)[C@H](O)[C@H]2O)[C@H](O)[C@@H](O)[C@@H]1O` [trehalose], for which, in the test with normal mice [1] (setting [4]), the Body weight stood at 19.10 g, the “Percentage of defecation quantity” value worked out at 37.84% and the defecation quantity was 0.70 ± 0.01 g. In the test with normal mice [1] (before administration), the Body weight amounted to 19.80 g, the “Percentage of defecation quantity” value is 62.16% and the defecation quantity was 1.15 ± 0.03 g. In the test with healthy volunteers, the “effect on blood glucose level in normal people” value was “significantly raised blood glucose level” and the “Blood glucose level before administration” value turned out to be 7.0 mmol/L. Further, the “Blood glucose level after administration” value in the test with healthy volunteers (30 min) was 9.3 mmol/L. Also, the “Blood glucose level after administration” value in the test on healthy volunteers (60 min) amounted to 8.4 mmol/L. In the test on healthy volunteers (120 min), the “Blood glucose level after administration” value is recorded as 7.1 mmol/L. In the test with normal mice [2], the Sleep duration was 30.54 ± 2.17 min and the “Time when righting reflex disappeared” value is 2.49 ± 0.14 min. Also, in the test with ovariectomized rats, the Bone density amounted to 0.1037 ± 0.0211 g/cm^2 and the Mineral content stood at 0.1245 ± 0.0374 g/cm. In addition, in the test on normal mice [3], the “Time of initial writhing” value turned out to be 3.4 ± 1.1 min, the Pain inhibition ratio was 0.0% and the Number of writhings was 51.3 ± 1.6.
